According to ChEMBL document CHEMBL2448811, “Comparison of the accuracy of experimental and predicted pKa values of basic and acidic compounds” (Pharm Res, 2013):

Test: physchem

| SMILES | pKa |
| --- | --- |
| Cc1ncc(CO)c(CN)c1O [PYRIDOXAMINE] | 10.3 |
| CCCCCCCCCC(=O)OC(CC(=O)[O-])C[N+](C)(C)C (centres undefined) | 3.65 |
| CN(C)[C@@H]1C(=O)C(C(N)=O)=C(O)[C@@]2(O)C(O)=C3C(=O)c4c(O)cccc4[C@@](C)(O)C3[C@H](O)C12 (some centres undefined) | 7.32 |
| CCCCCCCC(=O)OC(CC(=O)[O-])C[N+](C)(C)C (centres undefined) | 3.6 |
